pIC50: −log10 of the molar value. Like-named read-outs stand apart in the source and are kept apart here.
Key:
A549 [1] = test: Test Example 1 in vitro cytotoxic activity screening (CTG); type: cell-based, human; conditions: for pIC50: Homo sapiens
Experimental: (§1) The CTG is used for detecting the ATP content in the experiment, and the survival condition of the tumor cells is reflected. […] The killing effect of the toxin molecule was then assayed according to this condition. 1.2. Selection of cell lines
(§2) According to the purpose of the experiment, two disease models of breast cancer and NSCLC were selected, and SKBR3 tumor cells (HER2+, ATCC, Cat #HTB-30), MDA-MB-468 (HER2-, ATCC, Cat #HTB-132) and A549 (human non-small cell lung cancer cells, ATCC, Cat #CCL-185) were selected for screening.
(§3) 2) Cell plating: A549 cells were digested with trypsin, and the cells were terminated with the above medium, and 4.3×10^5, 7.2×10^5 and 11.5×10^5 cells were added to the medium to give a final volume of 26 mL. 180 μL of cell suspension was added to each well in columns 2 to 11 of a 96-well plate (coming, Cat #3903) to give cell densities of 3K, 5K and 8K per well. Wells in column 12 were filled with 200 μL of culture medium and the remaining wells were filled with PBS. The above operations were repeated on the SKBR3 and MDA-MB-468 cells. The sample was duplicated.
(§4) 2 mM of stock solution (stock diluted 10-fold in DMSO) was prepared in column 1 of drug preparation plate 1, then 10-fold dilution in DMSO by gradient was performed in column 10, and the wells in column 11 were filled with DMSO. 95 μL of corresponding culture solution was added into each well from column 2 to column 11 of the drug preparation plate 2, 5 μL of solution was pipetted from column 2 to column 11 of drug preparation plate 1 to drug preparation plate 2, the solution was mixed well, 20 μL of solution was pipetted, added into the plated cells, and continuously cultured for 3 days and 5 days.
(§5) 4) CTG assay (Cell Titer-Glo™, luminescent cell viability assay, Promega): the cell plates were removed on day 3 and day 5, and balanced to room temperature. 90 μL of CTG was added into each well and reacted at room temperature for 10 min in the dark. The absorption value was read using a microplate reader and IC50 was calculated.

MDA-MB-468 [2] = test: Test Example 2 in vitro cytotoxic activity screening (CTG); type: cell-based; conditions: for pIC50: Homo sapiens
Experimental: (§6) The CTG is used for detecting the ATP content in the experiment, and the survival condition of the tumor cells is reflected.
(§7) A549, SKBR3 and MDA-MB-468 were digested with trypsin, and each was resuspended in culture medium to a cell density of 2.2×10^4 cells/mL, and 135 μL of cell suspension was added to each well in columns 2 to 11 of a 96-well plate, and column 12 was set as blank control. The cells were incubated in an incubator for 24 h at 37° C. with 5% CO2.
(§8) a) Stock solution preparation: the test compound and positive control drug were dissolved in DMSO to give a stock solution at a concentration of 5 mM.
(§9) b) Drug preparation plate 1: stock solution in column 1 was initially diluted 40-fold, and 3-fold gradient dilutions were performed sequentially in column 2 to column 11. Column 12 was filled with DMSO.
(§10) c) Drug preparation plate 2: 196 μL of the corresponding culture medium was added into columns 2 to 11, and 4 μL of culture medium was pipetted from column 3 to column 12 of drug preparation plate 1 to column 2 to column 11 of drug preparation plate
(§11) 15 μL of culture medium was pipetted from the drug preparation plate 2 and added into the plated cells. The cells were continuously incubated in an incubator for 5 h at 37° C. with 5% CO2.
as §5, with “2.4)” for “4)”, “assay):” for “assay, Promega):”, “removed” for “removed on day 3 and day 5,”, “75” for “90”

A549 [3] = test: as above; type: cell-based; conditions: for pIC50: Homo sapiens
Experimental: as §6, §7, §8, §9, §10, §11
as §5, with “2.4)” for “4)”, “assay):” for “assay, Promega):”, “removed” for “removed on day 3 and day 5,”, “75” for “90”

SKBR3 = test: as above; type: cell-based; conditions: for pIC50: Homo sapiens
Experimental: as §6, §7, §8, §9, §10, §11
as §5, with “2.4)” for “4)”, “assay):” for “assay, Promega):”, “removed” for “removed on day 3 and day 5,”, “75” for “90”

SKBR3 tumor cells = test: Test Example 1 in vitro cytotoxic activity screening (CTG); type: cell-based; conditions: for pIC50: Homo sapiens, SK-BR-3
Experimental: as §1, §2, §3, §4, §5

MDA-MB-468 [4] = test: as above; type: cell-based; conditions: for pIC50: Homo sapiens
Experimental: as §1, §2, §3, §4, §5

[5] = Test Example 6 pharmacokinetic study in beagles; conditions: male, beagle, dog, iv, 0.5 mg/kg
Experimental: The pharmacokinetic performance in beagles of the compounds of the present disclosure was studied and the pharmacokinetic profile thereof was evaluated.
Male 6 beagles were divided into 2 groups of 3, purchased from Shanghai Medicilon Inc., and subjected to administration test.
Plasma samples were stored in a refrigerator at −80° C. prior to testing. […] The plasma concentration of the test compounds in beagles after drug injection was determined: after administration, 25 μL of beagle plasma at various times after administration was taken, and added with 50 μL (100 ng/mL) of internal standard solution camptothecin (National Institutes for Drug Control) and 200 μL of acetonitrile. The mixture was vortexed for 5 min and centrifuged for 10 min (3700 rpm/min). 3 to 4 μL of the supernatant of the plasma sample was subjected to LC/MS assay (API4000 triple quadrupole tandem mass spectrometer (No. 2), Applied Biosystems, USA; Shimadzu, LC-30AD ultra high performance liquid chromatography system, Shimadzu, Japan.) The analysis was performed.

[6] = SK-BR-3, SKBR3, CTG, incubated 5 h, read-out: IC50
[7] = MDA-MB-468, CTG, read-out: IC50

## C=C1C[C@@H]2CC[C@]34C[C@@H]5O[C@H]6[C@@H](O3)[C@@H]3O[C@H](CC[C@@H]3O[C@@H]6[C@H]5O4)CC(=O)C[C@@H]3[C@H](OC)[C@@H](C[C@H](O)CNC(=O)CO)O[C@H]3C[C@H]3O[C@@H](CC[C@@H]1O2)C[C@H](C)C3=C [Compound D-4]
A549 [1]; A549, CTG, read-out: IC50
  pIC50: 8.25
MDA-MB-468 [2]; MDA-MB-468, CTG, incubated 5 h, read-out: IC50
  pIC50: 8.73
MDA-MB-468 [2]; MDA-MB-468, CTG, incubated 5 h
  Maximum inhibition: 89.43%
A549 [3]; A549, CTG, incubated 5 h
  Maximum inhibition: 62.09%
A549 [3]; A549, CTG, incubated 5 h, read-out: IC50
  pIC50: 8.51
SKBR3; [6]
  pIC50: 8.96
SKBR3; SKBR3, CTG, incubated 5 h
  Maximum inhibition: 96.85%
SKBR3 tumor cells; SKBR3, CTG, read-out: IC50
  pIC50: 8.89
MDA-MB-468 [4]; [7]
  pIC50: 8.75

## C=C1C[C@@H]2CC[C@@]34C[C@H]5O[C@H]6[C@@H](O3)[C@H]3O[C@H](CC[C@@H]3O[C@H]6[C@H]5O4)CC(=O)C[C@@H]3[C@@H](OC)[C@@H](C[C@H](O)CNC)O[C@H]3C[C@H]3O[C@@H](CC[C@@H]1O2)C[C@@H](C)C3=C [Compound E-305, reference compound]
MDA-MB-468 [2]; MDA-MB-468, 5 h
  pIC50: 8.93
MDA-MB-468 [2]; MDA-MB-468, CTG, incubated 5 h
  Maximum inhibition: 88.53%
A549 [3]; A549, CTG, incubated 5 h
  Maximum inhibition: 61.27%
A549 [3]; A549, 5 h
  pIC50: 8.68
SKBR3; [6]
  pIC50: 9.24
SKBR3; SKBR3, CTG, incubated 5 h
  Maximum inhibition: 96.42%

## C=C1C[C@@H]2CC[C@@]34C[C@H]5O[C@H]6[C@@H](O3)[C@H]3O[C@H](CC[C@@H]3O[C@H]6[C@H]5O4)CC(=O)C[C@@H]3[C@@H](OC)[C@@H](C[C@H](O)CNC(=O)[C@H](O)C4CC4)O[C@H]3C[C@H]3O[C@@H](CC[C@@H]1O2)C[C@@H](C)C3=C [Compound D-2]
A549 [1]; A549, CTG, read-out: IC50
  pIC50: 8.50
SKBR3 tumor cells; SKBR3, CTG, read-out: IC50
  pIC50: 9.08
MDA-MB-468 [4]; [7]
  pIC50: 9.04

## C=C1C[C@@H]2CC[C@@]34C[C@H]5O[C@H]6[C@@H](O3)[C@H]3O[C@H](CC[C@@H]3O[C@H]6[C@H]5O4)CC(=O)C[C@@H]3[C@@H](OC)[C@@H](C[C@@H](CNC(=O)[C@H](O)C4CC4)OC)O[C@H]3C[C@H]3O[C@@H](CC[C@@H]1O2)C[C@@H](C)C3=C [Compound D-3]
A549 [1]; A549
  pIC50: 8.29
MDA-MB-468 [2]; MDA-MB-468, 5 h
  pIC50: 8.70
MDA-MB-468 [2]; MDA-MB-468, CTG, incubated 5 h
  Maximum inhibition: 90.94%
A549 [3]; A549, CTG, incubated 5 h
  Maximum inhibition: 63.03%
A549 [3]; A549, 5 h
  pIC50: 8.66
SKBR3; SK-BR-3, 5 h
  pIC50: 8.93
SKBR3; SKBR3, CTG, incubated 5 h
  Maximum inhibition: 96.36%
SKBR3 tumor cells
  pIC50: 8.87
MDA-MB-468 [4]; MDA-MB-468
  pIC50: 8.78

## C=C1C[C@@H]2CC[C@@]34C[C@H]5O[C@H]6[C@@H](O3)[C@H]3O[C@H](CC[C@@H]3O[C@H]6[C@H]5O4)CC(=O)C[C@@H]3[C@@H](OC)[C@@H](C[C@@H](CN)OC)O[C@H]3C[C@H]3O[C@@H](CC[C@@H]1O2)C[C@@H](C)C3=C [Compound D-1]
[5]; in vivo
  AUC(0-t): 433 ng·h/mL
  MRT: 41.1 h
  Vd: 22 L/kg
  clearance: 8.9 mL/min/kg
  concentration at 5 min: 82.1 ng/mL
  half-life: 29.3 h
A549 [1]; A549, CTG
  Maximum inhibition: 81.34%
A549 [1]; A549
  pIC50: 9.29
SKBR3 tumor cells
  pIC50: 9.69
SKBR3 tumor cells; SKBR3, CTG
  Maximum inhibition: 96.87%
MDA-MB-468 [4]; MDA-MB-468
  pIC50: 9.74
MDA-MB-468 [4]; MDA-MB-468, CTG
  Maximum inhibition: 88.01%

## C=C1C[C@@H]2CC[C@@]34C[C@H]5O[C@H]6[C@@H](O3)[C@H]3O[C@H](CC[C@@H]3O[C@H]6[C@H]5O4)CC(=O)C[C@@H]3[C@@H](OC)[C@@H](C[C@H](O)COC(=O)c4ccc(CO)cc4)O[C@H]3C[C@H]3O[C@@H](CC[C@@H]1O2)C[C@@H](C)C3=C [Compound D-8]
A549 [1]; A549, CTG, read-out: IC50
  pIC50: 9.09
SKBR3 tumor cells; SKBR3, CTG, read-out: IC50
  pIC50: 9.48
MDA-MB-468 [4]; [7]
  pIC50: 9.07

## C=C1C[C@@H]2CC[C@@]34C[C@H]5O[C@H]6[C@@H](O3)[C@H]3O[C@H](CC[C@@H]3O[C@H]6[C@H]5O4)CC(=O)C[C@@H]3[C@@H](OC)[C@@H](C[C@H](O)COC(=O)C4(O)CC4)O[C@H]3C[C@H]3O[C@@H](CC[C@@H]1O2)C[C@@H](C)C3=C [Compound D-7]
A549 [1]; A549, CTG, read-out: IC50
  pIC50: 8.75
SKBR3 tumor cells; SKBR3, CTG, read-out: IC50
  pIC50: 9.32
MDA-MB-468 [4]; [7]
  pIC50: 9.04

## C=C1C[C@@H]2CC[C@@]34C[C@H]5O[C@H]6[C@@H](O3)[C@H]3O[C@H](CC[C@@H]3O[C@H]6[C@H]5O4)CC(=O)C[C@@H]3[C@@H](OC)[C@@H](C[C@H](O)COC(=O)[C@H](O)C4CC4)O[C@H]3C[C@H]3O[C@@H](CC[C@@H]1O2)C[C@@H](C)C3=C [Compound D-6]
A549 [1]; A549, CTG, read-out: IC50
  pIC50: 8.73
SKBR3 tumor cells; SKBR3, CTG, read-out: IC50
  pIC50: 9.53
MDA-MB-468 [4]; [7]
  pIC50: 9.00

## C=C1C[C@@H]2CC[C@@]34C[C@H]5O[C@H]6[C@@H](O3)[C@H]3O[C@H](CC[C@@H]3O[C@H]6[C@H]5O4)CC(=O)C[C@@H]3[C@@H](OC)[C@@H](C[C@H](O)CNC(=O)C4(O)CC4)O[C@H]3C[C@H]3O[C@@H](CC[C@@H]1O2)C[C@@H](C)C3=C [Compound D-5]
A549 [1]; A549, CTG, read-out: IC50
  pIC50: 8.40
SKBR3 tumor cells; SKBR3, CTG, read-out: IC50
  pIC50: 9.42

## C=C1C[C@@H]2CC[C@@]34C[C@H]5O[C@H]6[C@@H](O3)[C@H]3O[C@H](CC[C@@H]3O[C@H]6[C@H]5O4)CC(=O)C[C@@H]3[C@@H](OC)[C@@H](C[C@H](O)CN)O[C@H]3C[C@H]3O[C@@H](CC[C@@H]1O2)C[C@@H](C)C3=C [Eribulin, eribulin, reference compound]
[5]
  concentration at 5 min: 217 ng/mL
A549 [1]; A549, CTG
  Maximum inhibition: 81.50%
SKBR3 tumor cells; SKBR3, CTG
  Maximum inhibition: 94.90%
MDA-MB-468 [4]; MDA-MB-468, CTG
  Maximum inhibition: 87.47%

Reference: patent US20230144203A1 (SHANGHAI SENHUI MEDICINE CO., LTD., priority 2020, published 2023)
